As a reminder, the Km is the concentration of substrate that gives half-maximal velocity.

Holding throughout (assay type): biochemical, Dictyoglomus thermophilum
In assay [1] the test system is T1, Xln-DT.
T1 construct: recombinant, pET-28a-xln-DT in E. coli BL21(DE3), heat treatment and Ni-NTA; ~55 kDa on SDS-PAGE
Put plainly: glucose release, Michaelis-Menten. Particulars: 0.2-10 g/L substrate. The source says: glucose release, Michaelis-Menten on Xln-DT

The subject of assay [2] is T1, Xln-DT. Put plainly: pNP release at […] nm, Michaelis-Menten. Particulars: 50 mM sodium phosphate pH 6.0, optimal temperature.
For assay [3], the system named is T1, Xln-DT. Put plainly: xylose release, Michaelis-Menten. The conditions noted are these: 0.2-10 g/L substrate. The source says:
xylose release, Michaelis-Menten on Xln-DT

For `OC[C@H]1O[C@@H](O[C@H]2[C@H](O)[C@@H](O)C(O)O[C@@H]2CO)[C@H](O)[C@@H](O)[C@@H]1O` (some centres unmarked) [Cellobiose], the Km in the assay on Xln-DT [1] was 11000 µM. On to `O=[N+]([O-])c1ccc(O[C@@H]2O[C@@H](CO)[C@H](O)[C@H]2O)cc1` [pNPA], for which the Km with Xln-DT [2] turned out to be 1020 µM. Take `OC1OC[C@@H](O[C@@H]2OC[C@@H](O)[C@H](O)[C@H]2O)[C@H](O)[C@H]1O` (some centres unmarked) [X2, Xylobiose]: in the assay on Xln-DT [3], the Km is 930 µM.

As for `O=[N+]([O-])c1ccc(O[C@@H]2OC[C@@H](O)[C@H](O)[C@H]2O)cc1` [pNPX], in the assay with Xln-DT [2], the Km was determined as 1660 µM. Turning to `O=[N+]([O-])c1ccc(O[C@@H]2O[C@H](CO)[C@@H](O)[C@H](O)[C@H]2O)cc1` [pNPG], in the assay with Xln-DT [2], the Km was found to be 3670 µM.

These data come from article PMC7882696, “Co-production of Xylooligosaccharides and Xylose From Poplar Sawdust by Recombinant Endo-1,4-β-Xylanase and β-Xylosidase Mixture Hydrolysis” (Frontiers in Bioengineering and Biotechnology, 2021).
